Measured values taken from ChEMBL document CHEMBL5247649, “Comparative Efficacy and Selectivity of Pharmacological Inhibitors of DYRK and CLK Protein Kinases” (J Med Chem, 2023).

Tests used:
[1] = molecular target: T1, Dual specificity tyrosine-phosphorylation-regulated kinase 2 (Homo sapiens, UniProt Q92630); assay: biochemical; format: cell-based, Sf9
T1 sequence (Q92630 whole entry): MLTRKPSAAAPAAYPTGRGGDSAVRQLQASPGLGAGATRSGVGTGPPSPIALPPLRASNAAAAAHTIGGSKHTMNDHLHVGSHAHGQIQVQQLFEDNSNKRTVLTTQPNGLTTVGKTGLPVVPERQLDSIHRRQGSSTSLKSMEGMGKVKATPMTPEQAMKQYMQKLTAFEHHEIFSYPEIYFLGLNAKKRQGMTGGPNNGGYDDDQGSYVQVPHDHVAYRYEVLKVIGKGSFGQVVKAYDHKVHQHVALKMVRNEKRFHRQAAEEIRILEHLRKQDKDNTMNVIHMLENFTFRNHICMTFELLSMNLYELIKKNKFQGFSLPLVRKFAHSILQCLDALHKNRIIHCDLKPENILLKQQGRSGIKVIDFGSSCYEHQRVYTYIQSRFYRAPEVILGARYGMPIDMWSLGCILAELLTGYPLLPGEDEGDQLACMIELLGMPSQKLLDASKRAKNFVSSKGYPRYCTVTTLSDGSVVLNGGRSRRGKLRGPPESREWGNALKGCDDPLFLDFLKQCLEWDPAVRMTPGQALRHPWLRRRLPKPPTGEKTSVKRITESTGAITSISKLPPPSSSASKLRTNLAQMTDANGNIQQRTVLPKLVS

[2] = molecular target: Casein kinase I isoform epsilon (Homo sapiens, UniProt P49674); assay: biochemical; format: cell-based, Sf9
Chain of Casein kinase I isoform epsilon (P49674 whole entry, canonical isoform): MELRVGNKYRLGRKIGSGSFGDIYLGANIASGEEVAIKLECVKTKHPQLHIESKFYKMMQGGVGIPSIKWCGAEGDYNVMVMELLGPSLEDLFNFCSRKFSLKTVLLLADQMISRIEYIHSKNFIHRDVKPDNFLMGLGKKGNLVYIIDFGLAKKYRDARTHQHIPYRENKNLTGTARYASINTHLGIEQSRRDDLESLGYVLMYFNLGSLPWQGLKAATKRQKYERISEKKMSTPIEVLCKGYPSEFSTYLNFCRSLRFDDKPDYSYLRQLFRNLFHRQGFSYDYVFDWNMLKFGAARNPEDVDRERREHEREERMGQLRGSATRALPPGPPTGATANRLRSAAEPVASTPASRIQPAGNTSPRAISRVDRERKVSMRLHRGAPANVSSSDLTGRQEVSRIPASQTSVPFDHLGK

[3] = molecular target: T2, Glycogen synthase kinase-3 beta (Homo sapiens, UniProt P49841); assay: biochemical; format: cell-based, Sf9
T2 sequence (P49841 whole entry): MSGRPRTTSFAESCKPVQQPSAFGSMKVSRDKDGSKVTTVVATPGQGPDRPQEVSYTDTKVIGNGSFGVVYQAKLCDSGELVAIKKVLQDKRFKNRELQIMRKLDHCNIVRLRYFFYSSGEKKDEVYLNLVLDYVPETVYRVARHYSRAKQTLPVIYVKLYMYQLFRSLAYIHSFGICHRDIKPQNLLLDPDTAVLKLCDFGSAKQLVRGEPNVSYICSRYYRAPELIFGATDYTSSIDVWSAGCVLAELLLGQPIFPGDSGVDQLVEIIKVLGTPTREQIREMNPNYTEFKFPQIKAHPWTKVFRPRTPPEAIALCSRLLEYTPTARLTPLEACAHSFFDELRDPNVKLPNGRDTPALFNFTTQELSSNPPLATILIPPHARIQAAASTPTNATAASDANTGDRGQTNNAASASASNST

[4] = molecular target: Dual specificity protein kinase CLK2 (Homo sapiens, UniProt P49760); assay: biochemical
Chain of Dual specificity protein kinase CLK2 (P49760 whole entry): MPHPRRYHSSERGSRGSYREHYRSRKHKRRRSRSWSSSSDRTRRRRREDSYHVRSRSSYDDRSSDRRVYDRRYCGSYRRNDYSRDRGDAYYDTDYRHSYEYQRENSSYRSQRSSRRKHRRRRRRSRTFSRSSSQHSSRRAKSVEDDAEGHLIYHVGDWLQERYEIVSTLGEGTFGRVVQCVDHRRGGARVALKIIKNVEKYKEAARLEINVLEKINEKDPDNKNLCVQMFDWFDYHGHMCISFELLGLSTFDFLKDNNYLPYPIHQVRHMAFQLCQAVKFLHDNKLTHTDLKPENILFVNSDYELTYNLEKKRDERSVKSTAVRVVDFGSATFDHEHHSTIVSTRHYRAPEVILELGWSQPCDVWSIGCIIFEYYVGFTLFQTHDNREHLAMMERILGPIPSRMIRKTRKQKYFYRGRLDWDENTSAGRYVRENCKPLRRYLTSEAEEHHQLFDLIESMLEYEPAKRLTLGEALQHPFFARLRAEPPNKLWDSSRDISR

[5] = molecular target: T2, Glycogen synthase kinase-3 beta
[6] = molecular target: T3, Dual specificity tyrosine-phosphorylation-regulated kinase 3 (Homo sapiens, UniProt O43781); assay: biochemical; format: cell-based, Sf9
T3 sequence (O43781 whole entry): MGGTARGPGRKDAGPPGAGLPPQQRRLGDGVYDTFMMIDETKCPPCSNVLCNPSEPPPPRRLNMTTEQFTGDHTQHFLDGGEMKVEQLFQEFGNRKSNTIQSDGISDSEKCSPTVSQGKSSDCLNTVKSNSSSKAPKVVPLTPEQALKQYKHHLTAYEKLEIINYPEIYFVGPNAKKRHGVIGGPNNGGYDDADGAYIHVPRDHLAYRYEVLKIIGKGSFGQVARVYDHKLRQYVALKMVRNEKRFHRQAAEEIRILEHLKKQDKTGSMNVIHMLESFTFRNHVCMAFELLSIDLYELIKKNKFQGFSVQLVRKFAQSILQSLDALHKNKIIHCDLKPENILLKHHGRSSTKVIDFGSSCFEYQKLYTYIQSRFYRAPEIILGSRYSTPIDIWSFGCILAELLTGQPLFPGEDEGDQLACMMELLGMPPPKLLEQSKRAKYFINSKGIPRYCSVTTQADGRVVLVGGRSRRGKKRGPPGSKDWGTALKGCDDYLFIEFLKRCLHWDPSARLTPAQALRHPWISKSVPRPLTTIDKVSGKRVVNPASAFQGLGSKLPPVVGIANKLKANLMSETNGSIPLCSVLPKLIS

[7] = molecular target: Dual specificity protein kinase CLK3 (Homo sapiens, UniProt P49761); assay: biochemical; format: cell-based, Sf9
Chain of Dual specificity protein kinase CLK3 (P49761 whole entry): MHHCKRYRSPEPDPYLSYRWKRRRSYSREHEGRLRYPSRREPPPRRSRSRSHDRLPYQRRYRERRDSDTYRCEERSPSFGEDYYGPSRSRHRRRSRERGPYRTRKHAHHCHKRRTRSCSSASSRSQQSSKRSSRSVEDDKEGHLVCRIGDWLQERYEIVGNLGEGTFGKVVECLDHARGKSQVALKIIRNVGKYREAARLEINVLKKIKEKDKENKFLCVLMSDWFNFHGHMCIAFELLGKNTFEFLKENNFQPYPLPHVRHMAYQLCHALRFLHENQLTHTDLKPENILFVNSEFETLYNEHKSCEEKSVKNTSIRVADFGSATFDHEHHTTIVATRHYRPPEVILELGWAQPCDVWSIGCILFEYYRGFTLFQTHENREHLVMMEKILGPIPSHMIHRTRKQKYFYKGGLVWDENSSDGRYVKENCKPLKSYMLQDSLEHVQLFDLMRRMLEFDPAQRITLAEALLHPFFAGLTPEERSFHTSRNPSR

in vitro = details: mouse, ht-22
[8] = molecular target: T4, Dual specificity tyrosine-phosphorylation-regulated kinase 4 (Homo sapiens, UniProt Q9NR20); assay: biochemical; format: cell-based, Sf9
T4 sequence (Q9NR20 whole entry): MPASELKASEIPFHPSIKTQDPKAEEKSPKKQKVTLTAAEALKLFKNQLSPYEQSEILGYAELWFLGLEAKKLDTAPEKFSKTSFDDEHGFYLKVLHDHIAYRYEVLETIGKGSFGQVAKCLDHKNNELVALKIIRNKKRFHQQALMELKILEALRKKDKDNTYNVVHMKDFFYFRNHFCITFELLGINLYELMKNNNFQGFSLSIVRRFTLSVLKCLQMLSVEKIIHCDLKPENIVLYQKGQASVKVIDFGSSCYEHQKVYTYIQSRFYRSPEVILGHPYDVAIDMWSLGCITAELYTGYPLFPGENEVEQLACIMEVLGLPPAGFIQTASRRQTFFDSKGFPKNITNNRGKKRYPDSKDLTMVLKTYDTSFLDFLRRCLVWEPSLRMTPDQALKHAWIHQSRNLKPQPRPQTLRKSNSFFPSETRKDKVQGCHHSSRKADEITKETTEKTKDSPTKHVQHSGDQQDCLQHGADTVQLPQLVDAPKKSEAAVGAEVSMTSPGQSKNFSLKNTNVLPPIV

[9] = molecular target: Cyclin-dependent kinase 5/CDK5 activator 1 (Homo sapiens, UniProt Q00535); assay: biochemical; format: cell-based, Sf9
Chain of Cyclin-dependent kinase 5/CDK5 activator 1 (Q00535 whole entry): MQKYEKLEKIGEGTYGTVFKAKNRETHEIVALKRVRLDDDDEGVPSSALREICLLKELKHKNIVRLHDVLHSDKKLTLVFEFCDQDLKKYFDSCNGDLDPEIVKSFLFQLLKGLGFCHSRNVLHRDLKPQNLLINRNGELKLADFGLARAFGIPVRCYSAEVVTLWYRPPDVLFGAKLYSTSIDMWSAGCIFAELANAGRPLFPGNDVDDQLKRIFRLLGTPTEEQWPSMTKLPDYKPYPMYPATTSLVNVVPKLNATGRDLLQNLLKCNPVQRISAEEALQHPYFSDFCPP
Chain of Cyclin-dependent kinase 5/CDK5 activator 1 (Q15078 whole entry, further chain): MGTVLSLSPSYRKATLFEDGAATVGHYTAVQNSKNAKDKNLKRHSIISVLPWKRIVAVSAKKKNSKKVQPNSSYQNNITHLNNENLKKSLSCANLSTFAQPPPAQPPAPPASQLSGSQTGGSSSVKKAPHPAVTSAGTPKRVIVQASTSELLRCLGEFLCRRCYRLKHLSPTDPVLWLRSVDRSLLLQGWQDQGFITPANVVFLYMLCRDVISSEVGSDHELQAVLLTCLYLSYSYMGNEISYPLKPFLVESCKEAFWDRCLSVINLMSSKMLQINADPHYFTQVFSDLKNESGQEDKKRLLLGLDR

[10] = molecular target: T5, Dual specificity protein kinase CLK1 (Homo sapiens, UniProt P49759); assay: biochemical; format: cell-based, Sf9
T5 sequence (P49759 whole entry): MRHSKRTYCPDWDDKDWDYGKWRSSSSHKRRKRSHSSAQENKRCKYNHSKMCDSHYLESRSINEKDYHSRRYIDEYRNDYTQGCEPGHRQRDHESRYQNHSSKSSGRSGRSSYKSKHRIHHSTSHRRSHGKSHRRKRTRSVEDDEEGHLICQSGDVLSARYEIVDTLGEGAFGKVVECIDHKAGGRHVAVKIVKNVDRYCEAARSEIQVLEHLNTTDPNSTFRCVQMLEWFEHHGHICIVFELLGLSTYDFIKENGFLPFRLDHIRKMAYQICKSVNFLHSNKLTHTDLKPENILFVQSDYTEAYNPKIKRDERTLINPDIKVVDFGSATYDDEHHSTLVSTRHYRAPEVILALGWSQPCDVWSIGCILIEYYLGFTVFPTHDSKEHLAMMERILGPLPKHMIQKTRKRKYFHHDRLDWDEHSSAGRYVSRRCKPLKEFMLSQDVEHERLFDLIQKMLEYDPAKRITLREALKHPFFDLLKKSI

[11] = molecular target: T5, Dual specificity protein kinase CLK1
[12] = molecular target: Dual specificity protein kinase CLK4 (Homo sapiens, UniProt Q9HAZ1); assay: biochemical
Chain of Dual specificity protein kinase CLK4 (Q9HAZ1 whole entry): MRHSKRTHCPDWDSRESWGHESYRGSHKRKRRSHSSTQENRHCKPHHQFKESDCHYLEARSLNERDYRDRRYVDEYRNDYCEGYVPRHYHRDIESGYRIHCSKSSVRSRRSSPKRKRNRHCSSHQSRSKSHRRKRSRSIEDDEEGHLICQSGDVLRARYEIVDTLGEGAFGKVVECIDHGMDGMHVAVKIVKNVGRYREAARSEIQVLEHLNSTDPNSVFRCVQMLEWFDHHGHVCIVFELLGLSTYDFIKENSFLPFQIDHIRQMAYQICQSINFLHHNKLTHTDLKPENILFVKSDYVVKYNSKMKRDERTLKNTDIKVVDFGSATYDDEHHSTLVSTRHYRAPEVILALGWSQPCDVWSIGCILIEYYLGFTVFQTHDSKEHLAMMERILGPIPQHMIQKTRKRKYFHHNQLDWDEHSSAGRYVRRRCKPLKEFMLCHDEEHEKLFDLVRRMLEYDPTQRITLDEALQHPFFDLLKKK

[13] = molecular target: T5, Dual specificity protein kinase CLK1; assay: biochemical; format: cell-based, Sf9; remark: listed apart in the source

Structure (SMILES)	IC50 [1] [nM]	IC50 [2] [µM]	IC50 [3] [µM]	IC50 [4] [nM]	Kd [5] [µM]	IC50 [6] [µM]	IC50 [7] [µM]	IC50 at 48 h (in vitro) [µM]	IC50 [8] [µM]	IC50 [9] [µM]	IC50 [10] [nM]	Kd [11] [nM]	IC50 [12] [nM]	IC50 ([13]; sf9)	IC50 ([13]; read-out: IC50) [nM]
CN1Cc2nn(C)c(C#N)c2-c2cnc3[nH]cc(c3c2)-c2cn(nc2C(F)(F)F)CCCC1=O	8780	> 10	> 10	6710	7.29	> 10	> 10	51.3	> 10	> 10					
CN1C(=O)/C(=C/c2ccc3c(c2)OCO3)N=C1N [LEUCETTAMINE B]	2730	> 10	> 10	3090	> 10	4.89	> 10	> 100	6.37		646	36.9	396		
CN1Cc2nn(C)c(C#N)c2-c2cnc3[nH]c(F)c(c3c2)-c2cn(nc2C(F)(F)F)CCCC1=O	1100	> 10	3.39	2500	0.936	> 10	> 10	> 100	> 10	> 10			> 10000	Not Active	
CCN1/C(=C/C(C)=O)Sc2ccc(O)cc21	226	2.98	4.4	315	1.64	0.0826	4.79	> 100	0.894	> 10	44.2	1.27	10.9		
CCNc1cc(Nc2ccc(C(=O)N3CCC(N4CCOCC4)CC3)cc2OC)nc2[nH]cc(C(F)(F)F)c12	> 10000	7.99	> 10	40.5	> 10	7.15	2.05	19.9	> 10	> 10	71.3	1.39	21.1		92.9
Cc1ccc([N+](=O)[O-])cc1S(=O)(=O)N(C)/N=C/c1cnc2ccc(Br)cn12	118	0.405	0.0176	1.1	0.00393	0.0104	0.0119	0.16	2.59	0.0245	18.8	0.056	6.9		30.8
CCOC(=O)c1c(/C(C#N)=C\N)c2ccc(Cl)c(Cl)c2n1C	> 10000	> 10	> 10		> 10	> 10		> 100	> 10	> 10			14.8		
O=C(O)c1nc2ccccc2c2[nH]c3c(I)cccc3c12		> 10	> 10	5140	0.475		> 10	> 100	> 10		3610	6.22	316		14.6
Cc1nc2ccc(-c3cc(N)nc(N)c3)nc2n1C(C)C	10	2.9	> 10	36.5	9.59	> 10	1.19	5.8	0.171	0.273			9.5		
CN(C)c1nccc(-c2cnn3ncccc23)n1	3270	> 10	> 10		> 10	4.45	2.97	58.6	9.59	9.67	319	5.38	219		
O=c1c2c(O)cc(O)cc2oc2c(O)ccc(O)c12 [DEMETHYLBELLIDIFOLIN]	2710	> 10	> 10	1700	> 10	> 10	7.53	2.5	> 10	> 10	239	29.7	146		
